The text below walks through data of ChEMBL document CHEMBL3526017, “Predicting the drug interaction potential of AMG 853, a dual antagonist of the D-prostanoid and chemoattractant receptor-homologous molecule expressed on T helper 2 cells receptors” (Drug Metab Dispos, 2012).

The subject of series [1] is Liver microsome. Put plainly: Drug metabolism in human liver microsomes treated with AMG 853 after 45 mins by LC-MS/MS analysis in presence of UDPGA. The following applies: 0.75 h. Format: ADME. In general terms: Liver microsomes are vesicles of endoplasmic reticulum, rich in cytochrome P450 enzymes.
Series [2] addresses T1, UDP-glucuronosyltransferase 1A3 (Homo sapiens, UniProt P35503).
T1 sequence (P35503 whole entry): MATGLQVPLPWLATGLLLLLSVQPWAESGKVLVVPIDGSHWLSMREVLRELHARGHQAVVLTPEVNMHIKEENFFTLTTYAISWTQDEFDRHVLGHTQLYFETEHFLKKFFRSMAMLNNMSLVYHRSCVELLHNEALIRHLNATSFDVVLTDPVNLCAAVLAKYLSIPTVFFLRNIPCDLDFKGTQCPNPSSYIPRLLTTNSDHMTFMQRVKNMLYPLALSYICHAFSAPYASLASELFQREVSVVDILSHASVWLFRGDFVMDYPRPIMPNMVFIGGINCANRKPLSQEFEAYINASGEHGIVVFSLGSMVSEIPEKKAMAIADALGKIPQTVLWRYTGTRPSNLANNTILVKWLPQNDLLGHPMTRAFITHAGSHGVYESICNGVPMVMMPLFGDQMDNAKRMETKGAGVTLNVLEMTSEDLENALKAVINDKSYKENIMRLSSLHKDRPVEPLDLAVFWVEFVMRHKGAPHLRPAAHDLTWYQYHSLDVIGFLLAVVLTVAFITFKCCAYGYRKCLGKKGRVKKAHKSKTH
Briefly: Drug metabolism assessed as human recombinant UGT1A3-mediated compound formation treated with AMG 853 after 45 mins by LC-MS/MS analysis in presence of UDPGA. Format: ADME. The following applies: recombinant enzyme, 0.75 h.

Series [3] addresses T2, Cytochrome P450 2C8 (Homo sapiens, UniProt P10632).
T2 sequence (P10632 whole entry): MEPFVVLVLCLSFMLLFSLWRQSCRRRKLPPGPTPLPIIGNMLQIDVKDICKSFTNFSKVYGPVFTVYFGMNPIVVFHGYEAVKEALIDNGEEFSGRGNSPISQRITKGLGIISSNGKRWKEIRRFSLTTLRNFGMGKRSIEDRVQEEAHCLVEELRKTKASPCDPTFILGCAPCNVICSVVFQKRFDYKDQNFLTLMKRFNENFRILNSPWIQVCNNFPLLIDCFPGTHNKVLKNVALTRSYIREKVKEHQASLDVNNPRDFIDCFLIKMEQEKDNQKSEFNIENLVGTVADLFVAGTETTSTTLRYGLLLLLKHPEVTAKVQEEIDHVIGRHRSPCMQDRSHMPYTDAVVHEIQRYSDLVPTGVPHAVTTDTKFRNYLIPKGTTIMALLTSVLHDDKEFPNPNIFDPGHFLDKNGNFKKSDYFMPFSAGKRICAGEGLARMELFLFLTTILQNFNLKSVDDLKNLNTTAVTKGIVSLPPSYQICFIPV
Put plainly: Competitive inhibition of CYP2C8 in human liver microsomes assessed as paclitaxel 6-hydroxylation after 20 mins by LC-MS/MS analysis. Format: ADME.

For a further series, the target named is T3, Cytochrome P450 2J2 (Homo sapiens, UniProt P51589).
T3 sequence (P51589 whole entry): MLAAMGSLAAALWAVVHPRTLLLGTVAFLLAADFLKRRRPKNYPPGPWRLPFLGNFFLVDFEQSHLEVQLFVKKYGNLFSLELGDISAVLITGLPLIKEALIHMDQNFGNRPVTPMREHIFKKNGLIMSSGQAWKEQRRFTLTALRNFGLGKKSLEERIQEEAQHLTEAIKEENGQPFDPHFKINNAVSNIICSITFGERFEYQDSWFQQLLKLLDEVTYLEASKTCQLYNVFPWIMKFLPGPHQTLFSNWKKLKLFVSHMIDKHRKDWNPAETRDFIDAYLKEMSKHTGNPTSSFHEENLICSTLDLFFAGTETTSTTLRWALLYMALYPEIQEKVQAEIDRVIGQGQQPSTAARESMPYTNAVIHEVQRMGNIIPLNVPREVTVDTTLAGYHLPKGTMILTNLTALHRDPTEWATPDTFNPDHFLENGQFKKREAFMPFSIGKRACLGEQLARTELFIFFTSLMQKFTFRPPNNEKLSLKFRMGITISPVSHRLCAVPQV
Put plainly: Drug metabolism assessed as recombinant CYP2J2 (unknown origin)-mediated 2-(5-chloro-4-(2-(2-chloro-4-cyclopropylphenylsulfonamido)-4-(1-hydroxy-2-methylpropan-2-ylcarbamoyl)phenoxy)-2-fluorophenyl)acetic acid formation at 10 uM after 30 mins by LC-MS/MS analysis. Format: ADME. The following applies: recombinant enzyme, 0.5 h.

Series [4] relates to Liver microsome. Put plainly: Drug metabolism in human liver microsomes assessed as 2-(4-(4-(tert-butylcarbamoyl)-2-(2-chloro-4-(1-hydroxycyclopropyl)phenylsulfonamido)phenoxy)-5-chloro-2-fluorophenyl)acetic acid formation at 2 uM after 60 mins by LC-MS/MS analysis in presence of ketoconazole. Format: ADME. The following applies: 1 h.
The target in the next series is CYP2C9 (Homo sapiens, UniProt P11712). Briefly: Induction of CYP2C9 in human hepatocytes using diclofenac as substrate at 0.3 to 30 uM treated every 24 hrs for 2 days measured on day 5 by LC-MS/MS analysis relative to control. Conditions: probe diclofenac, read-out: FC. Format: ADME, cell-based, Hepatocyte.
A short description of series [5]: Drug metabolism in human liver microsomes assessed as CYP3A5*1/*1-mediated (2S,3S,4S,5R,6S)-6-(2-(4-(4-(tert-butylcarbamoyl)-2-(2-chloro-4-cyclopropylphenylsulfonamido)phenoxy)-5-chloro-2-fluorophenyl)acetoxy)-3,4,5-trihydroxytetrahydro-2H-pyran-2-carboxylic acid formation after 15 mins by LC-MS/MS analysis in presence of UDPGA and NADPH. The class given is ADME. Conditions: 0.25 h.

The next series relates to CYP2B6. Briefly: Upregulation of CYP2B6 mRNA expression in human hepatocytes at 0.3 to 30 uM treated every 24 hrs for 2 days measured on day 5 relative to control. The class given is ADME, cell-based, Hepatocyte. The following applies: read-out: FC.
The next series deals with Cytochrome P450 2C19 (Homo sapiens, UniProt P33261). Briefly: Drug metabolism assessed as recombinant CYP2C19 (unknown origin)-mediated 2-(4-(4-(tert-butylcarbamoyl)-2-(2-chloro-4-(1-hydroxycyclopropyl)phenylsulfonamido)phenoxy)-5-chloro-2-fluorophenyl)acetic acid formation at 10 uM after 30 mins by LC-MS/MS analysis. The class given is ADME. The following applies: recombinant enzyme, 0.5 h.

In series [6] the target is T1, UDP-glucuronosyltransferase 1A3. Put plainly: Drug metabolism assessed as human recombinant UGT1A3-mediated (2S,3S,4S,5R,6S)-6-(2-(4-(4-(tert-butylcarbamoyl)-2-(2-chloro-4-cyclopropylphenylsulfonamido)phenoxy)-5-chloro-2-fluorophenyl)acetoxy)-3,4,5-trihydroxytetrahydro-2H-pyran-2-carboxylic acid formation at 10 uM after 30 mins by LC-MS/MS analysis. Format: ADME. Conditions: recombinant enzyme, 0.5 h.

In series [7] the target is T2, Cytochrome P450 2C8. Briefly: Drug metabolism assessed as recombinant CYP2C8 (unknown origin)-mediated 2-(5-chloro-4-(2-(2-chloro-4-cyclopropylphenylsulfonamido)-4-(1-hydroxy-2-methylpropan-2-ylcarbamoyl)phenoxy)-2-fluorophenyl)acetic acid formation at 10 uM after 30 mins by LC-MS/MS analysis. The following applies: recombinant enzyme, 0.5 h. The class given is ADME.

Series [8] has as its target UDP-glucuronosyltransferase 1A6 (Homo sapiens, UniProt P19224). Put plainly: Drug metabolism assessed as human recombinant UGT1A6-mediated (2S,3S,4S,5R,6S)-6-(2-(4-(4-(tert-butylcarbamoyl)-2-(2-chloro-4-cyclopropylphenylsulfonamido)phenoxy)-5-chloro-2-fluorophenyl)acetoxy)-3,4,5-trihydroxytetrahydro-2H-pyran-2-carboxylic acid formation at 10 uM after 30 mins by LC-MS/MS analysis. The class given is ADME. Conditions: recombinant enzyme, 0.5 h.

UDP-glucuronosyltransferase 1A6, sequence (P19224 whole entry): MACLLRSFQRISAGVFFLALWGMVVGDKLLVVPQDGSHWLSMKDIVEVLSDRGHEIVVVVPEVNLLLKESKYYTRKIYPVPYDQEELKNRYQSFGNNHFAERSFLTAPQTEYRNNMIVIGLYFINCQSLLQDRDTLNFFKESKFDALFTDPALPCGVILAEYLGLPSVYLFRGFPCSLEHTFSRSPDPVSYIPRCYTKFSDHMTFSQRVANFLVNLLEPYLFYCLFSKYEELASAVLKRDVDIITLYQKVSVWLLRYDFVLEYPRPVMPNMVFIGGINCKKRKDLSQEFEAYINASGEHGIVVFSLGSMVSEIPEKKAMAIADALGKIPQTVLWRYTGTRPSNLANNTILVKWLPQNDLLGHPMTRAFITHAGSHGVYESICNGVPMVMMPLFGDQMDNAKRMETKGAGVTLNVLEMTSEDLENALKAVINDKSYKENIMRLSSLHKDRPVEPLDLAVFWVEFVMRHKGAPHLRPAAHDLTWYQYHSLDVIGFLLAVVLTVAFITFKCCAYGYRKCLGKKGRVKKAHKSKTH
Cytochrome P450 2C19, sequence (P33261 whole entry): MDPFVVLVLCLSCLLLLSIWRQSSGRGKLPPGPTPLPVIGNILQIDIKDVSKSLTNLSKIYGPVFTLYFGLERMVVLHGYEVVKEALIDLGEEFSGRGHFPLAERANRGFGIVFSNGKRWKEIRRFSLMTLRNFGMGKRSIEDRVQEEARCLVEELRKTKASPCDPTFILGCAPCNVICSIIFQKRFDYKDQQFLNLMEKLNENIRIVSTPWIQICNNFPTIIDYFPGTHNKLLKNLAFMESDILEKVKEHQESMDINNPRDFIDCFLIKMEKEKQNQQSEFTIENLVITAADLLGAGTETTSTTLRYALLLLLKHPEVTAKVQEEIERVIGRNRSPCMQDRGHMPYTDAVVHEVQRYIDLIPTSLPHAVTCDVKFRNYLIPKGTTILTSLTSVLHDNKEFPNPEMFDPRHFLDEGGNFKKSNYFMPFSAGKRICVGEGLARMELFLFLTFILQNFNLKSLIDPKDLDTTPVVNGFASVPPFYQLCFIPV
CYP2C9, sequence (P11712 whole entry): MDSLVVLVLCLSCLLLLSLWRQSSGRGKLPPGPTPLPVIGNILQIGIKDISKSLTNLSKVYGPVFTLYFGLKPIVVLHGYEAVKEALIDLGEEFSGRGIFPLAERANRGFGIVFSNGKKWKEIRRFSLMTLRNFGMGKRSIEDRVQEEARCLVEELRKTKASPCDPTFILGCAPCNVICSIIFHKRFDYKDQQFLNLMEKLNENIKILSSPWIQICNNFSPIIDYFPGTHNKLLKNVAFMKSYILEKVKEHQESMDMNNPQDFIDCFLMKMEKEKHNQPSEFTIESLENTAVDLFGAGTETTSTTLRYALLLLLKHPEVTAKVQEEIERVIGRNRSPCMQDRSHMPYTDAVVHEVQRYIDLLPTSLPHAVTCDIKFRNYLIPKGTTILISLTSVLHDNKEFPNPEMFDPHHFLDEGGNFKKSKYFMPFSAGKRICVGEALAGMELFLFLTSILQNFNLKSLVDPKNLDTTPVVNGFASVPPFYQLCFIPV

For orientation: Vmax means the top rate of the reaction or transport when substrate is in excess. Regarding `CC(C)(C)NC(=O)c1ccc(Oc2cc(F)c(CC(=O)O[C@@H]3O[C@H](C(=O)O)[C@@H](O)[C@H](O)[C@H]3O)cc2Cl)c(NS(=O)(=O)c2ccc(C3CC3)cc2Cl)c1`, in the series with Liver microsome [1], the S50 came to 205.4 µM and the Vmax is on record as 43 pmol/min/mg. In series [2], the S50 turned out to be 379.2 µM and the Vmax is on record as 39.1 pmol/min/mg.

The Ki is a dissociation constant, usually derived from enzyme kinetics or from competition with a known ligand. As to `CC(C)(C)NC(=O)c1ccc(Oc2cc(F)c(CC(=O)O)cc2Cl)c(NS(=O)(=O)c2ccc(C3CC3)cc2Cl)c1` [VIDUPIPRANT], the Ki on Cytochrome P450 2C8 [3] turned out to be 1100 nM. Also, the Drug metabolism result is “metabolite_detected” at Cytochrome P450 2J2; “metabolite_not_detected” with Liver microsome [4]; “metabolite_not_detected” in [5]; “metabolite_detected” at Cytochrome P450 2C19; “metabolite_detected” in [6]; “metabolite_detected” on Cytochrome P450 2C8 [7]. For the same compound, the Drug metabolism entry in [8] is reported as “metabolite_not_detected”. In addition, the fold induction at 48 h, up to 30 µM on CYP2C9 is 1.4; with CYP2B6 it was 1.7.
